Test results: US8168651B2, “Protein kinase modulators” (Cylene Pharmaceuticals, Inc., priority 2008, dated 2012)
pIC50: −log10 of the molar value.

How the values were obtained:
recombinant human PIM1 = recombinant human PIM1 (Homo sapiens (Human), UniProt P11309); test: PIM-1 kinase activity in cell-free in vitro assay; format: biochemical; conditions: cell-free assay; for inhibition at 0.5 µM: 500 nM compound, read-out: PIM-1: % inh 500 nM
K-562 = test: Cell proliferation modulatory activity, K-562; format: cell-based; conditions: Homo sapiens, K562; K-562 cells
[1] = tested on: HCT-116 human colorectal carcinoma cells; test: Cell-proliferation assay using Alamar Blue dye; format: cell-based; conditions: Homo sapiens, HCT-116, second HCT-116 column (c8); read-out: HCT-116 (uM) cell proliferation modulatory activity;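 note: cells exposed to compound for about 4 days, then Alamar Blue added and dye fluorescence read after about 4 h, compared with medium-only control wells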
MV-4-11 = test: Cell proliferation modulatory activity, MV-4-11; format: cell-based; conditions: Homo sapiens, MV4-11; MV-4-11 cells
recombinant human CK2 = recombinant human CK2 (Homo sapiens (Human), UniProt P68400); test: CK2 assay (cell-free, 33P-ATP filter plate); format: biochemical; conditions: 500 nM compound, cell-free assay; read-out: CK2: % inh 500 nM
Sequence of recombinant human CK2 (P68400 whole entry): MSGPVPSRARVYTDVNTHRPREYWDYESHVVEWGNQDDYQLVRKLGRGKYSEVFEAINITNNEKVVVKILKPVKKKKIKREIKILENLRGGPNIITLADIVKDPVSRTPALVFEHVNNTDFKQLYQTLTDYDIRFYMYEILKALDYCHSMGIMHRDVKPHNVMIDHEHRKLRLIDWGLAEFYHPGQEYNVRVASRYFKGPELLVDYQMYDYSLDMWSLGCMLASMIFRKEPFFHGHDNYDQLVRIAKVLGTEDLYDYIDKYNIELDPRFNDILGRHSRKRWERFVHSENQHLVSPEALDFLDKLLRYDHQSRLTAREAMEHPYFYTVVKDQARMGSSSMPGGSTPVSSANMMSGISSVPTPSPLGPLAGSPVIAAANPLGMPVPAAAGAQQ
Sequence of recombinant human CK2 (P67870 whole entry partner): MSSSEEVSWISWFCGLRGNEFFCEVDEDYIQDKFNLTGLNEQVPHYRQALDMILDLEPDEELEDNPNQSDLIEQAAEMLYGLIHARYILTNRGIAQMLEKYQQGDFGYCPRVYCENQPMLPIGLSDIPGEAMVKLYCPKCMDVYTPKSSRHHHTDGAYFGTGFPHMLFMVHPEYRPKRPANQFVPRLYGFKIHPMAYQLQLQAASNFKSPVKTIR

Sequence of recombinant human PIM1 (P11309 whole entry): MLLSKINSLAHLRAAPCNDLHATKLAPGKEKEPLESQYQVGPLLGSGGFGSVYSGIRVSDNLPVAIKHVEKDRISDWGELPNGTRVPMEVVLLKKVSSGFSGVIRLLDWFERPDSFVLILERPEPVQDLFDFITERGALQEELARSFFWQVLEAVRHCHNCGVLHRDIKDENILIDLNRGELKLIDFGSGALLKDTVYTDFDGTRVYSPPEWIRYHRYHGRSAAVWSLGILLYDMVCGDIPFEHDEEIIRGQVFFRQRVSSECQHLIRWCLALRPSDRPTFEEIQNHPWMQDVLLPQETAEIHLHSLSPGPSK

Compound | inhibition at 0.5 µM (recombinant human PIM1) [%] | IC50 (K-562) [µM] | IC50 [1] [µM] | IC50 (MV-4-11) [µM] | pIC50 (recombinant human PIM1) | inhibition at 0.5 µM (recombinant human CK2) [%]
Cc1ccccc1Nc1nc2cc(C(=O)O)ccc2c2cnc(NC3CC3)nc12 | 31.9 | 0.769 | 10 | 0.165 |  | 
CNC(=O)c1ccc2c(c1)nc(Nc1ccccc1C)c1nc(NC3CC3)ncc12 | 4.21 | > 10 | 1.61 |  |  | 
Cc1ccccc1Nc1nc2cc(C(=O)N(C)C)ccc2c2cnc(NC3CC3)nc12 | 0.71 | > 10 | > 10 |  |  | 
Cc1ccccc1Nc1nc2cc(C(=O)NC3CC3)ccc2c2cnc(NC3CC3)nc12 | 5.72 | > 10 | > 10 |  |  | 
COC(=O)c1ccc2c(c1)nc(NN)c1ccncc12 | -32.4 | > 10 | > 10 |  |  | -8.65
O=C(O)c1ccc2c(c1)nc(NN1CCCCC1)c1ccncc12 |  | > 10 | > 10 |  | < 5.96 | 
O=C(O)c1ccc2c(c1)nc(Nc1cccc(Cl)c1)c1ncccc12 | 16.7 | > 10 | > 10 |  |  | 40
O=C(O)c1ccc2c(c1)nc(Nc1ccc(F)c(Cl)c1)c1ncccc12 | -15.5 | > 10 | > 10 |  |  | 12.3
N#Cc1ccc2c(c1)nc(NCC(O)c1ccccc1)c1ccsc12 (stereo not shown) | 6.38 | > 10 | > 10 | > 10 |  | -9.58
N#Cc1ccc2c(c1)nc(NCCn1cccc1)c1ccsc12 | -25.6 | 6.07 | > 10 | > 10 |  | -22.3
CN1CCC(N(C)c2nc3cc(C#N)ccc3c3sccc23)C1 (stereo not shown) | -6.14 | > 10 | 4.65 | 7.87 |  | -14.1
Cc1nccn1CCNc1nc2cc(C#N)ccc2c2sccc12 | 8.62 | > 10 | > 10 | > 10 |  | -15.7
N#Cc1ccc2c(c1)nc(NCCn1ccnc1)c1ccsc12 | -0.12 | > 10 | > 10 | > 10 |  | -14.9
CN(CCN1CCCC1)c1nc2cc(C#N)ccc2c2sccc12 | -3.97 | 3.04 | 1.41 | 1.84 |  | -20.3
Cc1nccn1CCNc1nc2cc(-c3nnn[nH]3)ccc2c2sccc12 | 81.5 | > 10 | > 10 | > 10 | 6.92 | 62.1
N#Cc1ccc2c(c1)nc(N1CCC(N3CCOCC3)CC1)c1ccsc12 | 0.408 | > 10 | > 10 | > 10 |  | -34.7
CN1CCCC(Nc2nc3cc(C#N)ccc3c3sccc23)C1 (stereo not shown) | 20.8 | 5.06 | 1.42 | 3.23 |  | -17.5
N#Cc1ccc2c(c1)nc(NCc1ccc(C(N)=O)cc1)c1ccsc12 | -23.8 | > 10 | > 10 | > 10 |  | -4.69

Compound | inhibition at 0.5 µM (recombinant human PIM1) [%] | IC50 (K-562) [µM] | IC50 [1] [µM] | IC50 (MV-4-11) [µM] | pIC50 (recombinant human PIM1) | inhibition at 0.5 µM (recombinant human CK2) [%]
CN(C)CCCNc1nc2cc(C#N)ccc2c2sccc12 | 23.8 | > 10 | 3.37 | 7.81 |  | -30.5
CN(C)CCCN(C)c1nc2cc(C#N)ccc2c2sccc12 | 15.3 | 7.98 | 3.92 | 3.55 |  | -4.72
CN(C)CCN(C)c1nc2cc(C#N)ccc2c2sccc12 | -3.15 | 1.87 | 0.511 | 1.07 |  | 64.1
CC1(C)CC(Nc2nc3cc(C#N)ccc3c3sccc23)CC(C)(C)N1 | -1.38 | > 10 | 6.75 | 9.88 |  | -3.98
CN(C)C1CCN(c2nc3cc(C#N)ccc3c3sccc23)CC1 | 20.3 | > 10 | 6.57 | 6.05 |  | -0.522
CN1CCCC1CNc1nc2cc(C#N)ccc2c2sccc12 (stereo not shown) | 8.14 | 6.5 | 4.41 | 3.74 |  | 0.724
N#Cc1ccc2c(c1)nc(N1CCC(N3CCCC3)CC1)c1ccsc12 | 35.7 | 6.94 | 5.66 | 3.36 |  | -6.67
N#Cc1ccc2c(c1)nc(NCc1ccccn1)c1ccsc12 | 2.17 | > 10 | > 10 | > 10 |  | 100
N#Cc1ccc2c(c1)nc(NCCc1ccccn1)c1ccsc12 | 10.6 | > 10 | > 10 | > 10 |  | 5.18
CN(CCc1ccccn1)c1nc2cc(C#N)ccc2c2sccc12 | 19.4 | > 10 | > 10 | > 10 |  | 44.5
N#Cc1ccc2c(c1)nc(N1CCC(c3cccnc3)C1)c1ccsc12 (stereo not shown) | -11.2 | > 10 | > 10 | > 10 |  | 0.642
N#Cc1ccc2c(c1)nc(N1CCN(c3ccccn3)CC1)c1ccsc12 | 11 | > 10 | > 10 | > 10 |  | 7.66
N#Cc1ccc2c(c1)nc(N1CCNC(=O)C1)c1ccsc12 | 8.04 | > 10 | > 10 | > 10 |  | -4.51
CC(=O)NC1CCN(c2nc3cc(C#N)ccc3c3sccc23)C1 (stereo not shown) | 5.75 | > 10 | > 10 | > 10 |  | -8.88
CC(=O)N1CCN(c2nc3cc(C#N)ccc3c3sccc23)CC1 | 7.13 | > 10 | > 10 | > 10 |  | 3.48
N#Cc1ccc2c(c1)nc(N1CCC[C@H]1C(N)=O)c1ccsc12 | 12.2 | > 10 | > 10 | > 10 |  | 4.42
CN1CCN(c2nc3cc(C#N)ccc3c3sccc23)CC1 | 15.8 | > 10 | 8.77 | 4.79 |  | 24.3
CN1CC(Nc2nc3cc(C#N)ccc3c3sccc23)C1 | 0.859 | > 10 | 0.437 | 0.882 |  | 20.6

Second part, the molecule after the results:

inhibition at 0.5 µM (recombinant human PIM1) [%] | IC50 (K-562) [µM] | IC50 [1] [µM] | IC50 (MV-4-11) [µM] | pIC50 (recombinant human PIM1) | inhibition at 0.5 µM (recombinant human CK2) [%] | Compound
38.8 | > 10 | > 10 |  |  |  | O=C(O)c1ccc2c(c1)nc(N1CCc3c([nH]c4ccccc34)C1)c1ccncc12
51.8 | > 10 | > 10 |  | < 5.96 |  | O=C(O)c1ccc2c(c1)nc(NCCn1ccnc1)c1ccncc12
97.1 | > 10 | > 10 | > 10 | 6.54 |  | Cc1nccn1CCNc1nc2cc(C(=O)O)ccc2c2cnccc12
-7.8 | > 10 | > 10 |  |  | 55.9 | O=C(O)c1ccc2c(c1)nc(NCC1CCN1Cc1ccccc1)c1ccncc12 (stereo not shown)
1.37 | > 10 | > 10 |  |  | 94.8 | O=C(O)c1ccc2c(c1)nc(Nc1ccn[nH]1)c1ccncc12
45.8 | > 10 | > 10 |  |  | 96.2 | Cn1nc(C2CC2)cc1Nc1nc2cc(C(=O)O)ccc2c2cnccc12
34.9 | > 10 | > 10 |  |  | 94.7 | CONc1nc2cc(C(=O)O)ccc2c2cnccc12
55.7 | > 10 | > 10 |  | 6.05 | 84.7 | CON(C)c1nc2cc(C(=O)O)ccc2c2cnccc12
71.2 | > 10 | > 10 |  | 6.36 | 89 | CN(c1ccccc1)c1nc2cc(C(=O)O)ccc2c2cnccc12
24.9 | > 10 | > 10 |  |  | 96.6 | Cc1cc(Nc2nc3cc(C(=O)O)ccc3c3cnccc23)c2ccccc2n1
70.7 | > 10 | > 10 |  | 6.43 | 97.3 | O=C(O)c1ccc2c(c1)nc(Nc1ccccc1Cl)c1ccncc12
9.63 | > 10 | > 10 |  |  | 90.2 | O=C(O)c1ccc2c(c1)nc(N1CCc3ccccc31)c1ccncc12
32.5 | > 10 | > 10 |  |  | 92 | O=C(O)c1ccc2c(c1)nc(Nc1ccccc1OC(F)(F)F)c1ccncc12
 | > 10 | > 10 | 0.185 | 6.15 |  | O=C(O)c1ccc2c(c1)nc(NCCNc1ccccc1)c1ccncc12
 | > 10 | > 10 | > 10 | 6.65 |  | CN(c1ccccc1)c1nc2cc(C(=O)O)ccc2c2cnc(N)nc12
72 | > 10 | > 10 | 6.94 | 6.82 | 99.4 | COc1cc(Nc2nc3cc(C(=O)O)ccc3c3cnccc23)cc(OC)c1
